Measured values: ChEMBL document CHEMBL4190350, “Synthesis, antimicrobial, antiquorum-sensing, antitumor and cytotoxic activities of new series of cyclopenta(hepta)[b]thiophene and fused cyclohepta[b]thiophene analogs” (Eur J Med Chem, 2017)
≈ marks a conversion by molar mass, not a printed value. Calls of active or inactive are those of the source. No cut-off for these calls is given here.

What was measured:
[1] = system: MCF7; test: Antitumor activity against human MCF7 cells assessed as inhibition of cell viability incubated for 48 hrs by MTT assay; type: functional, cell-based; settings: MCF7, 48 h
[2] = system: HT-29; test: Antitumor activity against human HT-29 cells assessed as inhibition of cell viability incubated for 48 hrs by MTT assay; type: functional, cell-based; settings: HT-29, 48 h
[3] = Binding affinity to DNA (unknown origin) assessed as reduction in absorption maxima for methyl green/DNA complex incubated for 24 hrs by methyl green/DNA displacement assay
[4] = system: Candida albicans; test: Antimicrobial activity against Candida albicans incubated for 48 hrs by disc diffusion assay; type: functional
[5] = system: Chromobacterium violaceum; test: Inhibition of quorum sensing system in Chromobacterium violaceum ATCC 12472 assessed as inhibition of violacein production at 5 mg/mL incubated for 48 hrs
[6] = system: Mus musculus; test: Toxicity in mouse EAC cells implanted Swiss albino mouse assessed as WBC count at 0.5 mg for 9 days (reference value: 23.96 10^3/mm3); type: organism-based; settings: in vivo, 216 h
[7] = system: Aspergillus fumigatus; test: Antimicrobial activity against Aspergillus fumigatus incubated for 48 hrs by disc diffusion assay; type: functional
[8] = system: WI-38; test: Cytotoxicity in human WI38 cells assessed as inhibition of cell viability incubated for 48 hrs by MTT assay; type: cell-based; settings: WI-38, 48 h
[9] = system: Mus musculus; test: Toxicity in mouse EAC cells implanted Swiss albino mouse assessed as hemoglobin level at 0.5 mg for 9 days (reference value: 8.15 g/dl); type: organism-based; settings: in vivo, 216 h
[10] = system: Ehrlich; test: Antitumor activity against mouse EAC cells implanted in Swiss albino mouse assessed as increase in life span at 0.5 mg for 9 days relative to untreated control; type: functional
[11] = system: Mus musculus; test: Toxicity in mouse EAC cells implanted Swiss albino mouse assessed as RBC count at 0.5 mg for 9 days (reference value: 3.69 10^6/mm3); type: organism-based; settings: in vivo, 216 h
[12] = system: Staphylococcus aureus; test: Antimicrobial activity against Staphylococcus aureus incubated for 24 hrs by serial dilution method; type: functional
[13] = system: Ehrlich; test: Antitumor activity against mouse EAC cells implanted in Swiss albino mouse assessed as mean survival time at 0.5 mg for 9 days (reference value: 14.5 day); type: functional
[14] = system: Escherichia coli; test: Antimicrobial activity against Escherichia coli incubated for 24 hrs by disc diffusion assay; type: functional
[15] = system: HepG2; test: Antitumor activity against human HepG2 cells assessed as inhibition of cell viability incubated for 48 hrs by MTT assay; type: functional, cell-based; settings: HepG2, 48 h
[16] = system: Bacillus cereus; test: Antimicrobial activity against Bacillus cereus incubated for 24 hrs by disc diffusion assay; type: functional
[17] = system: Ehrlich; test: Antitumor activity against mouse EAC cells implanted in Swiss albino mouse assessed as tumor volume at 0.5 mg for 9 days (reference value: 9.85 ml); type: functional
[18] = system: Staphylococcus aureus; test: Antimicrobial activity against Staphylococcus aureus incubated for 24 hrs by disc diffusion assay; type: functional
[19] = system: Escherichia coli; test: Antimicrobial activity against Escherichia coli incubated for 24 hrs by serial dilution method; type: functional
[20] = system: Bacillus cereus; test: Antimicrobial activity against Bacillus cereus incubated for 24 hrs by serial dilution method; type: functional
[21] = system: Ehrlich; test: Antitumor activity against mouse EAC cells implanted in Swiss albino mouse assessed as reduction in tumor cell count at 0.5 mg for 9 days (reference value: 9.85 ml); type: functional, cell-based
[22] = system: Aspergillus fumigatus; test: Antimicrobial activity against Aspergillus fumigatus incubated for 48 hrs by serial dilution method; type: functional
[23] = system: Candida albicans; test: Antimicrobial activity against Candida albicans incubated for 48 hrs by serial dilution method; type: functional

CCOC(=O)c1c(NN=C(C#N)C#N)sc2c1CCCCC2
IC50 [1]: 8.2 µM
IC50 [2]: 7.6 µM
IC50 [3]: 55.3 µM
diameter of the inhibition zone (DIZ) [4]: 11 mm
INH [5]: 9 mm
Activity [6]: 8.18 ×10³ /mm3
diameter of the inhibition zone (DIZ) [7]: 9 mm
IC50 [8]: 53.5 µM
Activity [9]: 12.54 g/dL
ILS [10]: 193.1%
Activity [11]: 5.09 ×10⁶ /mm3
MIC [12]: 988 µM (≈ 312 µg/mL)
MST [13]: 42.5 days
diameter of the inhibition zone (DIZ) [14]: 7 mm
IC50 [15]: 10.8 µM
diameter of the inhibition zone (DIZ) [16]: 11 mm
Activity [17]: 2.7 mL
diameter of the inhibition zone (DIZ) [18]: 19 mm

CO/N=C(\C(=O)N[C@@H]1C(=O)N2C(C(=O)O)=C(COC(C)=O)CS[C@H]12)c1csc(N)n1 [CEFOTAXIME]
MIC [19]: 13.6 µM (≈ 6.19 µg/mL)
MIC [12]: 32.9 µM (≈ 15 µg/mL)

CCOC(=O)/C(=N/Nc1sc2c(c1C(=O)OCC)CCCCC2)C(C)=O
IC50 [1]: 5.8 µM
IC50 [2]: 4.5 µM
IC50 [3]: 40.6 µM
diameter of the inhibition zone (DIZ) [4]: <2 mm
MIC [20]: 411 µM (≈ 156 µg/mL)
INH [5]: < 2 mm
Activity [6]: 7.11 ×10³ /mm3
diameter of the inhibition zone (DIZ) [7]: <2 mm
IC50 [8]: 44.8 µM
Activity [9]: 13.15 g/dL
ILS [10]: 210.34%
Activity [11]: 5.51 ×10⁶ /mm3
MIC [19]: 205 µM (≈ 78.1 µg/mL)
MIC [12]: 205 µM (≈ 78.1 µg/mL)
MST [13]: 45 days
diameter of the inhibition zone (DIZ) [14]: 22 mm
IC50 [15]: 9.1 µM
diameter of the inhibition zone (DIZ) [16]: 24 mm
Activity [17]: 1.97 mL
Activity [21]: Active
diameter of the inhibition zone (DIZ) [18]: 32 mm

CCOC(=O)/C(=N/Nc1sc2c(c1C(=O)OCC)CCC2)C(C)=O
IC50 [1]: 9.7 µM
IC50 [2]: 8.8 µM
IC50 [3]: 65.7 µM
diameter of the inhibition zone (DIZ) [4]: 5 mm
INH [5]: 6 mm
Activity [6]: 7.56 ×10³ /mm3
diameter of the inhibition zone (DIZ) [7]: 16 mm
IC50 [8]: 25.3 µM
Activity [9]: 13.1 g/dL
ILS [10]: 205.52%
Activity [11]: 5.49 ×10⁶ /mm3
MST [13]: 44.3 days
MIC [22]: 887 µM
diameter of the inhibition zone (DIZ) [14]: 4 mm
IC50 [15]: 16.1 µM
diameter of the inhibition zone (DIZ) [16]: 7 mm
Activity [17]: 2.32 mL
Activity [21]: Active
diameter of the inhibition zone (DIZ) [18]: <2 mm

CCOC(=O)c1c(NN=C(C(C)=O)C(C)=O)sc2c1CCC2
IC50 [1]: 7.6 µM
IC50 [2]: 18.7 µM
IC50 [3]: 42.2 µM
diameter of the inhibition zone (DIZ) [4]: 23 mm
MIC [20]: 485 µM (≈ 156 µg/mL)
INH [5]: 11 mm
Activity [6]: 8.76 ×10³ /mm3
diameter of the inhibition zone (DIZ) [7]: 26 mm
MIC [23]: 485 µM (≈ 156 µg/mL)
IC50 [8]: 33.5 µM
Activity [9]: 12.23 g/dL
ILS [10]: 172.35%
Activity [11]: 4.95 ×10⁶ /mm3
MIC [19]: 485 µM (≈ 156 µg/mL)
MIC [12]: 485 µM (≈ 156 µg/mL)
MST [13]: 39.5 days
MIC [22]: 485 µM
diameter of the inhibition zone (DIZ) [14]: 21 mm
IC50 [15]: 13.8 µM
diameter of the inhibition zone (DIZ) [16]: 26 mm
Activity [17]: 3.13 mL
diameter of the inhibition zone (DIZ) [18]: 22 mm

CCOC(=O)c1c(NN=C(C(C)=O)C(C)=O)sc2c1CCCCC2
IC50 [1]: 21.4 µM
IC50 [2]: 53.3 µM
IC50 [3]: 37.1 µM
diameter of the inhibition zone (DIZ) [4]: 20 mm
INH [5]: 4 mm
diameter of the inhibition zone (DIZ) [7]: 30 mm
MIC [23]: 223 µM (≈ 78.1 µg/mL)
MIC [22]: 223 µM
diameter of the inhibition zone (DIZ) [14]: 6 mm
IC50 [15]: 30.6 µM
diameter of the inhibition zone (DIZ) [16]: 14 mm
diameter of the inhibition zone (DIZ) [18]: 8 mm

NNC(=O)c1c(NN=C2C(N)=NN=C2N)sc2c1CCCCC2
IC50 [1]: 23.2 µM
IC50 [2]: 30.5 µM
IC50 [3]: 52.2 µM
diameter of the inhibition zone (DIZ) [4]: 24 mm
MIC [20]: 234 µM (≈ 78.1 µg/mL)
INH [5]: 12 mm
diameter of the inhibition zone (DIZ) [7]: 32 mm
MIC [23]: 467 µM (≈ 156 µg/mL)
MIC [19]: 467 µM (≈ 156 µg/mL)
MIC [12]: 234 µM (≈ 78.1 µg/mL)
MIC [22]: 234 µM
diameter of the inhibition zone (DIZ) [14]: 19 mm
IC50 [15]: 21.6 µM
diameter of the inhibition zone (DIZ) [16]: 30 mm
diameter of the inhibition zone (DIZ) [18]: 28 mm

OC(Cn1cncn1)(Cn1cncn1)c1ccc(F)cc1F [FLUCONAZOLE]
diameter of the inhibition zone (DIZ) [4]: 22 mm
diameter of the inhibition zone (DIZ) [7]: <2 mm
MIC [23]: 4080 µM (≈ 1250 µg/mL)
MIC [22]: > 2500 µg/mL

CC(=O)C1(C(C)=O)N=Nc2sc3c(c2C1=O)CCCCC3
IC50 [1]: 14.9 µM
IC50 [2]: 12.8 µM
IC50 [3]: 45.5 µM
diameter of the inhibition zone (DIZ) [4]: 19 mm
INH [5]: 3 mm
Activity [6]: 9.11 ×10³ /mm3
diameter of the inhibition zone (DIZ) [7]: <2 mm
MIC [23]: 513 µM (≈ 156 µg/mL)
IC50 [8]: 47.6 µM
Activity [9]: 12.04 g/dL
ILS [10]: 148.27%
Activity [11]: 4.81 ×10⁶ /mm3
MST [13]: 36 days
diameter of the inhibition zone (DIZ) [14]: <2 mm
IC50 [15]: 20.7 µM
diameter of the inhibition zone (DIZ) [16]: 7 mm
Activity [17]: 3.3 mL
diameter of the inhibition zone (DIZ) [18]: <2 mm

CC1=NN=C(C)C1=NNc1sc2c(c1C(=O)NN)CCCCC2
IC50 [1]: 4.1 µM
IC50 [2]: 5.7 µM
IC50 [3]: 27.8 µM
diameter of the inhibition zone (DIZ) [4]: <2 mm
INH [5]: 5 mm
Activity [6]: 6.9 ×10³ /mm3
diameter of the inhibition zone (DIZ) [7]: <2 mm
IC50 [8]: 33.2 µM
Activity [9]: 13.23 g/dL
ILS [10]: 227.55%
Activity [11]: 5.57 ×10⁶ /mm3
MST [13]: 47.5 days
diameter of the inhibition zone (DIZ) [14]: <2 mm
IC50 [15]: 6.9 µM
diameter of the inhibition zone (DIZ) [16]: <2 mm
Activity [17]: 1.85 mL
Activity [21]: Active
diameter of the inhibition zone (DIZ) [18]: <2 mm

CC1(C)S[C@@H]2[C@H](NC(=O)[C@H](N)c3ccccc3)C(=O)N2[C@H]1C(=O)O [AMPICILLIN]
MIC [20]: 3580 µM (≈ 1250 µg/mL)
MIC [19]: 55.9 µM (≈ 19.5 µg/mL)
MIC [12]: 894 µM (≈ 313 µg/mL)
diameter of the inhibition zone (DIZ) [14]: 28 mm
diameter of the inhibition zone (DIZ) [16]: 12 mm
diameter of the inhibition zone (DIZ) [18]: 20 mm
